In ChEMBL document CHEMBL3797106, “Potent and Selective Agonists of Sphingosine 1-Phosphate 1 (S1P1): Discovery and SAR of a Novel Isoxazole Based Series” (J Med Chem, 2016):
Activity calls are given as the source filed them. The rule behind the calls is not given here.

Columns and labels:
[1] = AUC in dog at 1 mg/kg, po; type: ADME, organism-based, Canis lupus familiaris; conditions: in vivo
[2] = Clearance in dog at 1 mg/kg, iv; type: ADME, organism-based, Canis lupus familiaris; conditions: in vivo
Rattus norvegicus [3] = assay: Antiarthritic activity in po dosed complete Freund's adjuvant-induced Lewis rat arthritis model assessed as suppression of paw swelling administered as qd for 21 days started from day of immunization measured 3 times per week of compound dosing by water displacement plethysmometry; type: functional; conditions: 504 h
Rattus norvegicus [4] = assay: Antiarthritic activity in complete Freund's adjuvant-induced Lewis rat arthritis model assessed as suppression of paw swelling at 0.5 to 3 mg/kg, po qd for 21 days started from day of immunization measured 3 times per week of compound dosing by water displacement plethysmometry; type: functional, organism-based
Rattus norvegicus [5] = assay: Antiarthritic activity in complete Freund's adjuvant-induced Lewis rat arthritis model assessed as suppression of paw swelling at 0.03 mg/kg, po qd for 21 days started from day of immunization measured 3 times per week of compound dosing by water displacement plethysmometry; type: functional, organism-based
Rattus norvegicus [6] = assay: Antiarthritic activity in po dosed complete Freund's adjuvant-induced Lewis rat arthritis model assessed as inhibition of paw inflammation administered as qd for 21 days started from day of immunization; type: functional, organism-based
Rattus norvegicus [7] = assay: Antiarthritic activity in po dosed complete Freund's adjuvant-induced Lewis rat arthritis model assessed as inhibition of bone resorption administered as qd for 21 days started from day of immunization; type: functional, organism-based
Mus musculus [8] = assay: Reduction in overall disease severity in po dosed C57BL/6 mouse experimental autoimmune encephalomyelitis model of multiple sclerosis administered as qd for 24 days started from day of immunization measured 3 times per week of compound dosing; type: functional, organism-based
Homo sapiens [9] = species on record: Homo sapiens; assay: Selectivity ratio of EC50 for human S1P3 receptor to EC50 for human S1P1 receptor
[10] = Plasma concentration in Lewis rat at 1 mg/kg, po measured at 4 hrs; type: ADME, organism-based
[11] = Plasma concentration in Lewis rat at 1 mg/kg, po measured at 24 hrs; type: ADME, organism-based
[12] = Plasma protein binding in rat; type: ADME, cell-free; conditions: read-out: PPB (converted)
[13] = Plasma protein binding in monkey; type: ADME, cell-free, Macaca mulatta; conditions: rhesus monkey, read-out: PPB (converted)
[14] = Dissociation constant, pKa of the compound; type: physicochemical
[15] = target: Voltage-gated inwardly rectifying potassium channel KCNH2 (Homo sapiens, UniProt Q12809); assay: Inhibition of human ERG by patch clamp method
Homo sapiens [16] = species on record: Homo sapiens; assay: Inhibition of sodium channel (unknown origin) at 10 uM by patch clamp method relative to control
Cytochrome P450 1A2 = target: T1, Cytochrome P450 1A2 (Homo sapiens, UniProt P05177); assay: Inhibition of CYP1A2 (unknown origin); type: ADME
T1 sequence (P05177 whole entry): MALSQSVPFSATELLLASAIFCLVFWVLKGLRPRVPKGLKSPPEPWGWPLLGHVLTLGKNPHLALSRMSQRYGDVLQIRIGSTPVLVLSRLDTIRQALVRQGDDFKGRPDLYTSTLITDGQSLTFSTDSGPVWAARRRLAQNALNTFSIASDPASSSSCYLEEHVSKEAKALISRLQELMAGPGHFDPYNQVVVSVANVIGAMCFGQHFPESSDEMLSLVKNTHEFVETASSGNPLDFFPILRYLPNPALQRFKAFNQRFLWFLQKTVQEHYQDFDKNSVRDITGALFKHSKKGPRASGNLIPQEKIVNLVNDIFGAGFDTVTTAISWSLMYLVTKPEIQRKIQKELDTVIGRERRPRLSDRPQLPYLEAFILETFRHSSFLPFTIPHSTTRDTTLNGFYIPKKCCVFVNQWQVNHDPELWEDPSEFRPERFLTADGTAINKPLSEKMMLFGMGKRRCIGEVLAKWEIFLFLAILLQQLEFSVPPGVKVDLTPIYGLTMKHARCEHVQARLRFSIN

Cytochrome P450 2B6 = target: T2, Cytochrome P450 2B6 (Homo sapiens, UniProt P20813); assay: Inhibition of CYP2B6 (unknown origin); type: ADME
T2 sequence (P20813 whole entry): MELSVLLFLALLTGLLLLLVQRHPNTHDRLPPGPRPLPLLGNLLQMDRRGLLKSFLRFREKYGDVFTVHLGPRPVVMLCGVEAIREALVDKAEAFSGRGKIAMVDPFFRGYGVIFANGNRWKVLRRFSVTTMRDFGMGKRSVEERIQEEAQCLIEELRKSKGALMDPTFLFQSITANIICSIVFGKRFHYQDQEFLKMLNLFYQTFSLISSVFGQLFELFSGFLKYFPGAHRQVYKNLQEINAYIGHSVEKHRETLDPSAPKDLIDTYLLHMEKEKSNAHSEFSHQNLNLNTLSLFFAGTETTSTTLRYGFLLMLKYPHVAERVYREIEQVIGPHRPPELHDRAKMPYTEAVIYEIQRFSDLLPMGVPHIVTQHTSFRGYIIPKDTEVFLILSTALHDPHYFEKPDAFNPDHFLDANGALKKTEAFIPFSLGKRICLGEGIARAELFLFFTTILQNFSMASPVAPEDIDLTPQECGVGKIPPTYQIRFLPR

Cytochrome P450 2C8 = target: T3, Cytochrome P450 2C8 (Homo sapiens, UniProt P10632); assay: Inhibition of CYP2C8 (unknown origin); type: ADME
T3 sequence (P10632 whole entry): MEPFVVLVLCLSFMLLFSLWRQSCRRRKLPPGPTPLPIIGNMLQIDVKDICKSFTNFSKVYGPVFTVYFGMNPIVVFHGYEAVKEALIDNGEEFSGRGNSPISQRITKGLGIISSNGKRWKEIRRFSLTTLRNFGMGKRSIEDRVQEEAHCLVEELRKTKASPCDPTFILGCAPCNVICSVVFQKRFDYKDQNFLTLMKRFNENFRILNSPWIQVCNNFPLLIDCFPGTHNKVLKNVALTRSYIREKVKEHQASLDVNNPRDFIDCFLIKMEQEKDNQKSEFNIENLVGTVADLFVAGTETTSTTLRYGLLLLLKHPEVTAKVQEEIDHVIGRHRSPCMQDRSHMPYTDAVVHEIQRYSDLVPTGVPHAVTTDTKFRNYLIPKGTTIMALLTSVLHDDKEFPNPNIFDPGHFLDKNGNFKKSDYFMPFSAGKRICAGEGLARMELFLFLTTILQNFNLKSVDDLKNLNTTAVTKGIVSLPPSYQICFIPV

[17] = Permeability of the compound at pH 7.4 by PAMPA; type: ADME; conditions: read-out: permeability
[18] = Lipophilicity, log D of the compound at pH 6.5; type: physicochemical; conditions: buffer
Rattus norvegicus [19] = assay: Reduction of blood lymphocyte level in Lewis rat at 0.3 mg/kg, po measured at 4 hrs by hematology analyzer relative to vehicle-treated control; type: functional; design: scale not given: the % may be the effect or the level left
Rattus norvegicus [20] = assay: Reduction of blood lymphocyte level in po dosed Lewis rat measured at 4 to 24 hrs by hematology analyzer; type: functional, organism-based
Mus musculus [21] = assay: AUC in mouse at 10 mg/kg, po; type: ADME, organism-based; conditions: in vivo
Mus musculus [22] = assay: Oral bioavailability in mouse at 10 mg/kg; type: ADME, organism-based; conditions: in vivo
[23] = Volume of distribution at steady state in rat at 2 mg/kg, iv; type: ADME, organism-based; conditions: in vivo, read-out: Vdss
[24] = Half life in cynomolgus monkey at 2 mg/kg, iv; type: ADME, organism-based, Macaca fascicularis; conditions: in vivo
[25] = Mean residence time in cynomolgus monkey at 2 mg/kg, iv; type: ADME, organism-based, Macaca fascicularis; conditions: in vivo
Cynomolgus monkey = assay: Clearance in cynomolgus monkey at 2 mg/kg, iv relative to hepatic blood flow; type: ADME, organism-based, Macaca fascicularis; conditions: in vivo

Sequence of Voltage-gated inwardly rectifying potassium channel KCNH2 (Q12809 whole entry): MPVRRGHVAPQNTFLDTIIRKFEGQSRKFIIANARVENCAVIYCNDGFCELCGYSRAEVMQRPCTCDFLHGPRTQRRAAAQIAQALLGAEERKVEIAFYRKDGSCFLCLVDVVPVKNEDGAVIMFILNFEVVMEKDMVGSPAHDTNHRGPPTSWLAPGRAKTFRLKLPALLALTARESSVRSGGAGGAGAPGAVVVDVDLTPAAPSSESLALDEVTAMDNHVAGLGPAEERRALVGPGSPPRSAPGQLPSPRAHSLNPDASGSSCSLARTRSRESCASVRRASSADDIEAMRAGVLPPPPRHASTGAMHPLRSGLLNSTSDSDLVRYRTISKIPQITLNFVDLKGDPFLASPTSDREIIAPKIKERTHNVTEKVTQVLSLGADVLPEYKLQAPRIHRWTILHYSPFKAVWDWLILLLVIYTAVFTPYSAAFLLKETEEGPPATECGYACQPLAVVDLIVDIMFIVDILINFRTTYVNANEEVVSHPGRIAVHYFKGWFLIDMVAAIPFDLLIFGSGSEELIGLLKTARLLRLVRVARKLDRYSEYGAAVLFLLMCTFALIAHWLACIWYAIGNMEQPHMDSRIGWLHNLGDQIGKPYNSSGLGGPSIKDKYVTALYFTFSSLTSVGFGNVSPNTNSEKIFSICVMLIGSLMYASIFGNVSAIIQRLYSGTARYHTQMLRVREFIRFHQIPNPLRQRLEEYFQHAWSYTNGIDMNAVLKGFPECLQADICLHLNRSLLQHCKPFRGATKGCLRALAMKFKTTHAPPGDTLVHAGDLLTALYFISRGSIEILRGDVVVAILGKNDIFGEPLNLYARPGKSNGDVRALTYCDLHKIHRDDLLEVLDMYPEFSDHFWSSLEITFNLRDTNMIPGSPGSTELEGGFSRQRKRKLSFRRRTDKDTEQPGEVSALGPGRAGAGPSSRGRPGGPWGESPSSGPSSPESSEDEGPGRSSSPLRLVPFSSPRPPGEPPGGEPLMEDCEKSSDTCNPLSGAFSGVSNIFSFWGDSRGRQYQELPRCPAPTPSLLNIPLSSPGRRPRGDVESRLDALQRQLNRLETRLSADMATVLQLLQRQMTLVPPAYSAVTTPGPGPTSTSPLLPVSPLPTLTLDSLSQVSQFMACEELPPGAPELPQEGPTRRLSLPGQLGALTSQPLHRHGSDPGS

Q: What does the source list for `O=C(O)C1CN(Cc2ccc(-c3noc(-c4onc(-c5ccccc5)c4C(F)(F)F)n3)cc2)C1`?
A: AUC [1]: 11 µM·h; clearance [2]: 1.6 mL/min/kg; ED50 (Rattus norvegicus [3]): 0.05 mg/kg; Activity (Rattus norvegicus [4]): Active; Activity (Rattus norvegicus [5]): inactive; inhibition (Rattus norvegicus [6]): Dose-dependent effect; inhibition (Rattus norvegicus [7]): Dose-dependent effect; Activity (Mus musculus [8]): Dose-dependent effect; Ratio EC50 (Homo sapiens [9]): 3400; concentration at 4 h [10]: 2100 nM; concentration at 24 h [11]: 700 nM; fraction unbound [12]: 0.006; fraction unbound [13]: 0.007; pKa [14]: 3.7; IC50 [15]: 18 µM; inhibition (Homo sapiens [16]): < 5%; IC50 (Cytochrome P450 1A2): > 40 µM; IC50 (Cytochrome P450 2B6): > 40 µM; IC50 (Cytochrome P450 2C8): > 40 µM; Papp [17]: 103 ×10⁻⁶ cm/s; logD [18]: 2.68; Activity (Rattus norvegicus [19]): 82%; Activity (Rattus norvegicus [20]): Dose-dependent effect; AUC (Mus musculus [21]): 250 µM·h; F (Mus musculus [22]): 71%; Vd [23]: 1.4 L/kg; half-life [24]: 3 h; MRT [25]: 2.2 h; CL (Cynomolgus monkey): 12%
